Active and inactive are the calls of the source.
Columns and labels:
[1] = A Cell Based Secondary Assay To Explore Cytotoxicity of Compounds that Sensitize Mycobacterium Tuberculosis to Beta-Lactam Antibiotics.; type: functional
[2] = tested on: Streptococcus sp. 'group A'; test: Streptococcus pyogenes SK(-)GAS viability under kanamycin – luminescence, BacTiterGlo, confirmation, counter-screen for streptokinase expression inhibitor project, dose response (AID 1900); type: functional, organism-based
Streptokinase A = target: T1, Streptokinase A (Streptococcus pyogenes serotype M1, UniProt P10520); test: viability-normalized secreted streptokinase activity reduction – plasminogen activation absorbance, OD405, dose response (AID 1914); type: functional, Streptococcus pyogenes M1 GAS;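 further: secreted streptokinase activity via plasminogen activation per viability signal from cell pellet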
T1 sequence (P10520 whole entry): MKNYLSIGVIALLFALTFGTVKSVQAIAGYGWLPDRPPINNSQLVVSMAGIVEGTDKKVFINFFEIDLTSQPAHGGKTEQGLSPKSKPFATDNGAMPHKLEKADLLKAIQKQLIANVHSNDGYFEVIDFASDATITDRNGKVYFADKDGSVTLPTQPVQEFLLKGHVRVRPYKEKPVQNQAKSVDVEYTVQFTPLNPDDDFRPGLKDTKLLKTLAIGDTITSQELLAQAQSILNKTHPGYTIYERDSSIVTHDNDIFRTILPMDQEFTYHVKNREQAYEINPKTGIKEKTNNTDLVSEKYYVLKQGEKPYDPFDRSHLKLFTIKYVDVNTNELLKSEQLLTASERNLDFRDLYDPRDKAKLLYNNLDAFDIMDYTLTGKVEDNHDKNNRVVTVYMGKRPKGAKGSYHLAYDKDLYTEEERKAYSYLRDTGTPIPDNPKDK

NS3 = NS3 (Hepatitis C virus, UniProt A3EZJ3); test: PubChem AID 2173; set-up: species or system Hepacivirus hominis
Streptococcus = test: GAS UMAA2166 growth inhibition – luminescence, BacTiterGlo, counter-screen for streptokinase expression inhibitor project, dose response (AID 1915); type: functional, organism-based;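 further: potency for reduction of bacterial viability or growth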
[3] = Luminescence Cell-Based Dose Retest to Confirm Inhibitors of Cancer Stem Cells. [Related pubchem assays (depositor defined):AID2717, AID2721]; type: functional; settings: Homo sapiens
[4] = luciferase reporter signal suppression in cells – H4 neuroglioma cells, luminescence, dose response (AID 1990); type: functional, cell-based
[5] = decrease of insulin promoter-GFP reporter – imaging, high-content screening, mouse beta cells (AID 1628); type: functional; settings: MIN6
[6] = target: T2, Neuropeptide Y receptor type 2 (Homo sapiens, UniProt P49146); test: IC50 for human NPY-Y2 blockade – cell-based, counter-screen for NPY-Y1 antagonist project, dose response (AID 1278); type: functional
T2 sequence (P49146 whole entry): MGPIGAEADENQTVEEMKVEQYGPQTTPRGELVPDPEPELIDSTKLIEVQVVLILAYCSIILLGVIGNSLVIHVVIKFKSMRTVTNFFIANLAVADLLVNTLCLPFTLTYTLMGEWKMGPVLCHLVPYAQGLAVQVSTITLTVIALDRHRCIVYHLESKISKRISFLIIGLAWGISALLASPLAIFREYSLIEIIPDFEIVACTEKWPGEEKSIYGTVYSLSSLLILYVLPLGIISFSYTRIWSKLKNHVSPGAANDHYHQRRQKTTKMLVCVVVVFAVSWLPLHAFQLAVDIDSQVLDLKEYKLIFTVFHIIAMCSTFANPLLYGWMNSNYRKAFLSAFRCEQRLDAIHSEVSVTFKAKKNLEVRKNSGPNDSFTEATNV

[7] = target: Luciferin 4-monooxygenase (Photinus pyralis, UniProt P08659); test: Counter Screen for Luciferase-based Assay Positives. [Related pubchem assays: 620, 618, 411 ]
[8] = Luminescence Cell-Based Dose Response HTS to Identify Inhibitors of 5'UTR Stem-Loop Driven Prion Protein mRNA Translation in H4 Neuroglioblastoma Cells. [Related pubchem assays: 1827 (Project Summary), 1813 (Primary HTS)]; type: functional
[9] = MIN6 cell viability loss – mouse insulinoma, cytotoxicity control, dose response (AID 2122); type: functional;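 further: confirmatory high-throughput counterscreen run to flag cytotoxic compounds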
Galanin receptor type 2 = Galanin receptor type 2 (Homo sapiens, UniProt O43603); test: Dose Response cell-based high-throughput screening assay to identify antagonists of galanin receptor 2 (GALR2). [Related pubchem assays: 828, 866 ]; type: functional
[10] = alpha-synuclein stem-loop luciferase translation blockers – H4 neuroglioma cells, luminescence, confirmation (AID 1988); type: functional, cell-based
[11] = target: T3, Neuropeptide Y receptor type 1 (Homo sapiens, UniProt P25929); test: IC50 of human NPY-Y1 blockers – cell-based, dose response (AID 1277); type: functional
T3 sequence (P25929 whole entry): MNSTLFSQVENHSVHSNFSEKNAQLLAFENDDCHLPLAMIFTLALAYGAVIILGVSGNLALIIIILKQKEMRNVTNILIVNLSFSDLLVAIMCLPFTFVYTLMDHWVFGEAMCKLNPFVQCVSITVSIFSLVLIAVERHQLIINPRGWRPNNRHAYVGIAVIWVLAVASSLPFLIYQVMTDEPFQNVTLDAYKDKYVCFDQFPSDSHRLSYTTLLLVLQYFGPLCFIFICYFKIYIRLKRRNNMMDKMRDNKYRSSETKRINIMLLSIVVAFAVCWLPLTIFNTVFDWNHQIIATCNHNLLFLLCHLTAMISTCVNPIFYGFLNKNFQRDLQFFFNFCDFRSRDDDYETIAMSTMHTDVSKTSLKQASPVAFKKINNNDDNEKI

HT-1080 = test: HT1080 cell viability loss – fluorescence readout (AID 620); type: functional, cell-based; settings: Homo sapiens
[12] = target: Photoreceptor-specific nuclear receptor (Homo sapiens, UniProt Q9Y5X4); type: functional, cell-based;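 further: CHO-S cells with Gal4-NCOR and VP16-NR2E3 two-hybrid luciferase reporter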
[13] = target: T4, Mannose-6-phosphate isomerase (Homo sapiens, UniProt P34949); test: MPI enzyme activity inhibition – biochemical, fluorescence intensity, coupled assay, primary screen (AID 1209)
T4 sequence (P34949 whole entry): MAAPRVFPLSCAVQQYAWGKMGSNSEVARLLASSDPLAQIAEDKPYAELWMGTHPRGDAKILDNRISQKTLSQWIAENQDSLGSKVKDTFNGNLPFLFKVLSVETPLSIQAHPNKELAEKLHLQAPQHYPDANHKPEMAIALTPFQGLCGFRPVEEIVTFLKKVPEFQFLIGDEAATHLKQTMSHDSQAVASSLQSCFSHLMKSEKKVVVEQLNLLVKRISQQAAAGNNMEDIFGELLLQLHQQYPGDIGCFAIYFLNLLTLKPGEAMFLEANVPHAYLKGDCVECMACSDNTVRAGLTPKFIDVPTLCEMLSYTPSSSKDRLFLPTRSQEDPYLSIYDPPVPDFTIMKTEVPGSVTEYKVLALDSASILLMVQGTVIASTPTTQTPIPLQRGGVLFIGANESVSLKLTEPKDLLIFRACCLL

[14] = target: Peroxisome proliferator-activated receptor gamma/Nuclear receptor coactivator 2 (Homo sapiens, UniProt P37231); type: functional;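 further: agonist potency for raising coactivator recruitment to the receptor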
[15] = target: Peroxisome proliferator-activated receptor gamma/Nuclear receptor coactivator 1 (Homo sapiens, UniProt P37231); type: functional;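 further: agonist potency as compounds enhance coactivator SRC-1 recruitment to PPARgamma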
[16] = target: Peroxisome proliferator-activated receptor gamma/Nuclear receptor coactivator 3 (Homo sapiens, UniProt P37231); type: functional;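 further: agonist potency for raising coactivator recruitment to the receptor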
[17] = target: T5, Endoribonuclease toxin MazF (Escherichia coli K-12, UniProt P0AE70); test: activation of MazEF endoribonuclease cleavage – biochemical, fluorescence, single-stranded RNA substrate, uHTS hits, dose response (AID 588481); type: functional
T5 sequence (P0AE70 whole entry): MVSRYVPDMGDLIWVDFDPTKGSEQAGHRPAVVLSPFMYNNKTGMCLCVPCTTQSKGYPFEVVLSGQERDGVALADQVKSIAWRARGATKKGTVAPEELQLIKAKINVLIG

[18] = target: T5, Endoribonuclease toxin MazF; test: substrate-only fluorescence increase artefacts – biochemical, single-stranded RNase substrate, counter-screen for MazEF activator project, dose response (AID 588502); type: functional
NADPH oxidase 1 = NADPH oxidase 1 (Homo sapiens, UniProt Q9Y5S8); type: functional, cell-based;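 further: Cell-based assay with luminescence read-out, IC50 derived from inhibitor dose-response curves; intracellular ROS from endogenous NOX1 in intact HT29 colon cancer cells; potency of inhibitors that lower the ROS luminescence signal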
Estrogen receptor = target: T6, Estrogen receptor (Homo sapiens, UniProt P03372);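 further: potency for inhibiting coactivator peptide recruitment to the receptor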
T6 sequence (P03372 whole entry): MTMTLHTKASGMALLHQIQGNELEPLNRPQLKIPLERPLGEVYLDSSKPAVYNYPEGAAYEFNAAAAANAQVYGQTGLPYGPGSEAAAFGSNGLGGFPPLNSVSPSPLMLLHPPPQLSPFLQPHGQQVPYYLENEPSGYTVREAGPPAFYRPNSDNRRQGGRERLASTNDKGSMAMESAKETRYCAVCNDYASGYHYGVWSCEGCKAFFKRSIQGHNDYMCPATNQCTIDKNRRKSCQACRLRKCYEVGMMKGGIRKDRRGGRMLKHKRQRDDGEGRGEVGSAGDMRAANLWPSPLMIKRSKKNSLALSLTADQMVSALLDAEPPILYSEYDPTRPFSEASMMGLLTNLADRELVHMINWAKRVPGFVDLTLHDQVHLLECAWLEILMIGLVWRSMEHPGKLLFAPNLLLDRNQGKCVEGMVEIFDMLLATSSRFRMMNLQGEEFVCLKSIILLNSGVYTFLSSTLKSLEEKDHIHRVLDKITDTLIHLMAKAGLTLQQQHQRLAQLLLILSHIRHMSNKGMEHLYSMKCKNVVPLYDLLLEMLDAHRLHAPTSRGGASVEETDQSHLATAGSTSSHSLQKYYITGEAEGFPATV

Estrogen receptor beta [19] = target: T7, Estrogen receptor beta (Homo sapiens, UniProt Q92731);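 further: recombinant ER-beta bound to coactivator SRC1 peptide in presence of estradiol agonist; inhibitors block coactivator peptide binding and lower the FRET signal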
Estrogen receptor beta [20] = target: T7, Estrogen receptor beta; test: blockers of SRC-3 recruitment to ERβ – biochemical, ELISA, streptavidin-HRP readout, orthogonal assay, confirmation (AID 1060)
Protein skinhead-1 = target: T8, Protein skinhead-1 (Caenorhabditis elegans, UniProt P34707); type: functional
T8 sequence (P34707 whole entry): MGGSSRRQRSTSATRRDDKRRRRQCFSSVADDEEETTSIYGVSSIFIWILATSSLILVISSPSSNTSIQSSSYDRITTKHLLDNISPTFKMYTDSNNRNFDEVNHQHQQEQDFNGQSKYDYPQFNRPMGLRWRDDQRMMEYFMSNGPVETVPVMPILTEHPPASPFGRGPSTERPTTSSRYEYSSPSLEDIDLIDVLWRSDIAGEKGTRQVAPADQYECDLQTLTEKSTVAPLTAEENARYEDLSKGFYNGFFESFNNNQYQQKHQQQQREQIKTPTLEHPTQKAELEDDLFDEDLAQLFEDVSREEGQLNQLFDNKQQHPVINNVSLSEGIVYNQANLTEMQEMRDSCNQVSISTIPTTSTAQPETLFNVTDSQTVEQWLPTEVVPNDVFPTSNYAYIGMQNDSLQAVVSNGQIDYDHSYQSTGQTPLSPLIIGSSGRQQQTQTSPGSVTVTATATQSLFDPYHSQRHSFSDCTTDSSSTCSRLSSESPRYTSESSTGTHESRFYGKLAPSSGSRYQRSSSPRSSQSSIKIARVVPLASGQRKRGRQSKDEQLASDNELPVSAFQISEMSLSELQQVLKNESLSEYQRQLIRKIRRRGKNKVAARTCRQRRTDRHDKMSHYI

Bcl-2-like protein 10 = Bcl-2-like protein 10 (Homo sapiens, UniProt Q9HD36); test: Concentration-response of Bcl-B inhibitors by biochemical FP with TR3 (AID 1243); type: functional
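Wherever AC50 is given: cells exposed to compound for roughly 70 hours or longer before luminescence read.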

T7 sequence (Q92731 whole entry): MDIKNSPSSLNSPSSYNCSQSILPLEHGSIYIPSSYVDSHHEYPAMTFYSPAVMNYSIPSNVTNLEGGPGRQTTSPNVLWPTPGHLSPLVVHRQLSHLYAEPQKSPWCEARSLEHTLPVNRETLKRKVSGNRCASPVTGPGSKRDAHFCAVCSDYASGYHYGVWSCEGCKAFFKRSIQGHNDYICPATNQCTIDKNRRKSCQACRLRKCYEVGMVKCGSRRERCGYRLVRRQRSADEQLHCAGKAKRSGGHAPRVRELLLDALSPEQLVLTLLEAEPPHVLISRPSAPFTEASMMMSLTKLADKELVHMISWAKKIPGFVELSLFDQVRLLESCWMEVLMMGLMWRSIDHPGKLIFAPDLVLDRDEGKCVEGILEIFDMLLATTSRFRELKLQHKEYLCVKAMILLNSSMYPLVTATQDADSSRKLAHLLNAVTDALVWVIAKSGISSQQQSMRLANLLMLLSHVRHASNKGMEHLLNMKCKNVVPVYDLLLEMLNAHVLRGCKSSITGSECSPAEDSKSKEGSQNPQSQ
Sequence of Peroxisome proliferator-activated receptor gamma/Nuclear receptor coactivator 3 (P37231 whole entry): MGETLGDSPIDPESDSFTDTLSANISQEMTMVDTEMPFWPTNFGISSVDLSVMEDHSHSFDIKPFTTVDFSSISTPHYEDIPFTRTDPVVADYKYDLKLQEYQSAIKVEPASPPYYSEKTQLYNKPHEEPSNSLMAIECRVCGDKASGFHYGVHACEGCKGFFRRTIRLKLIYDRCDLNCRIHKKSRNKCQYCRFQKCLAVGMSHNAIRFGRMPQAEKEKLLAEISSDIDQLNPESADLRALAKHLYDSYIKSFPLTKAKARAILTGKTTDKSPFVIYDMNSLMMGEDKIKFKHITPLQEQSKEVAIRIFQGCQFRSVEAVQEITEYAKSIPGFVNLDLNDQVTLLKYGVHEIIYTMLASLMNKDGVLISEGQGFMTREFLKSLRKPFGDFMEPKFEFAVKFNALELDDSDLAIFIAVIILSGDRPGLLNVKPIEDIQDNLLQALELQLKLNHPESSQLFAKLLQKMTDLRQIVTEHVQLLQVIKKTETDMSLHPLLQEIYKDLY
Sequence of Peroxisome proliferator-activated receptor gamma/Nuclear receptor coactivator 3 (Q9Y6Q9 whole entry, further chain): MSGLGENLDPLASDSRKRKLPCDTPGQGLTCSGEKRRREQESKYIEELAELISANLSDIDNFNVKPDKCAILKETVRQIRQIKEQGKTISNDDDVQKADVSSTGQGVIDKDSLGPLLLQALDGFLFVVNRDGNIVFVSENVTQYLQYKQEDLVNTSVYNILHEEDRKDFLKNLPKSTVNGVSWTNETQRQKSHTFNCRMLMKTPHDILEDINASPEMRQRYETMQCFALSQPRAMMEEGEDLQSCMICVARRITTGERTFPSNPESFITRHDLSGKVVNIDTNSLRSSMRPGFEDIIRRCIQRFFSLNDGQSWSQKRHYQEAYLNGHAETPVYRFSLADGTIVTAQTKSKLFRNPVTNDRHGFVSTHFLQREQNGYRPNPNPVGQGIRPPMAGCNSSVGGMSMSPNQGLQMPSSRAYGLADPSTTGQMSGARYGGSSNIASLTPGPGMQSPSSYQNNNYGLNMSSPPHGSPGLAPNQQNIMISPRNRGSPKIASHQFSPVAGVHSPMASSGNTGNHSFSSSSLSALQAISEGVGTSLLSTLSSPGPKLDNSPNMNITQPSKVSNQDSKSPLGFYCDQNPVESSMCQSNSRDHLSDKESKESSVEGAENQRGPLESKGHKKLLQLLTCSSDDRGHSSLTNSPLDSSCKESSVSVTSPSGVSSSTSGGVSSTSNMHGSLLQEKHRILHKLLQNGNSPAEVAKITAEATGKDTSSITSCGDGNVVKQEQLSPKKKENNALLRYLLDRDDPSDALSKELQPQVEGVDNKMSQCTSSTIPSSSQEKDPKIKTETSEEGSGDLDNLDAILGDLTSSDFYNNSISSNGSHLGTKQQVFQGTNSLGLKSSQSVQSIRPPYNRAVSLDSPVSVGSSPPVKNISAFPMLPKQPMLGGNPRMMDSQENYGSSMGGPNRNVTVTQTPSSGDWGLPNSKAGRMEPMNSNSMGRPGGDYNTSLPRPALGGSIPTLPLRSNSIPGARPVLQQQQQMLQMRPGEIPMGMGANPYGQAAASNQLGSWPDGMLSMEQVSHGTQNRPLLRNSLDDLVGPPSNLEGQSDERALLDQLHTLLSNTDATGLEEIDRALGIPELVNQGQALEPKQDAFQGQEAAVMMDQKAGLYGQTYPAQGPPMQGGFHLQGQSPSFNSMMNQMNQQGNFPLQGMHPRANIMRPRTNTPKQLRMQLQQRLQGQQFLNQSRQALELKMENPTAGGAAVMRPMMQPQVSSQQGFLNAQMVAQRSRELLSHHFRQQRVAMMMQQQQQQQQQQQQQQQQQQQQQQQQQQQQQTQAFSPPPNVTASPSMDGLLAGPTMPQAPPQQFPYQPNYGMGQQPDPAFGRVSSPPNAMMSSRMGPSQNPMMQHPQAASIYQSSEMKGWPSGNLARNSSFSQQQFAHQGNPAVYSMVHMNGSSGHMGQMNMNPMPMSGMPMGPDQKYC
Sequence of Peroxisome proliferator-activated receptor gamma/Nuclear receptor coactivator 2 (P37231 whole entry): as the sequence (P37231 whole entry) above
Sequence of Peroxisome proliferator-activated receptor gamma/Nuclear receptor coactivator 2 (Q15596 whole entry, further chain): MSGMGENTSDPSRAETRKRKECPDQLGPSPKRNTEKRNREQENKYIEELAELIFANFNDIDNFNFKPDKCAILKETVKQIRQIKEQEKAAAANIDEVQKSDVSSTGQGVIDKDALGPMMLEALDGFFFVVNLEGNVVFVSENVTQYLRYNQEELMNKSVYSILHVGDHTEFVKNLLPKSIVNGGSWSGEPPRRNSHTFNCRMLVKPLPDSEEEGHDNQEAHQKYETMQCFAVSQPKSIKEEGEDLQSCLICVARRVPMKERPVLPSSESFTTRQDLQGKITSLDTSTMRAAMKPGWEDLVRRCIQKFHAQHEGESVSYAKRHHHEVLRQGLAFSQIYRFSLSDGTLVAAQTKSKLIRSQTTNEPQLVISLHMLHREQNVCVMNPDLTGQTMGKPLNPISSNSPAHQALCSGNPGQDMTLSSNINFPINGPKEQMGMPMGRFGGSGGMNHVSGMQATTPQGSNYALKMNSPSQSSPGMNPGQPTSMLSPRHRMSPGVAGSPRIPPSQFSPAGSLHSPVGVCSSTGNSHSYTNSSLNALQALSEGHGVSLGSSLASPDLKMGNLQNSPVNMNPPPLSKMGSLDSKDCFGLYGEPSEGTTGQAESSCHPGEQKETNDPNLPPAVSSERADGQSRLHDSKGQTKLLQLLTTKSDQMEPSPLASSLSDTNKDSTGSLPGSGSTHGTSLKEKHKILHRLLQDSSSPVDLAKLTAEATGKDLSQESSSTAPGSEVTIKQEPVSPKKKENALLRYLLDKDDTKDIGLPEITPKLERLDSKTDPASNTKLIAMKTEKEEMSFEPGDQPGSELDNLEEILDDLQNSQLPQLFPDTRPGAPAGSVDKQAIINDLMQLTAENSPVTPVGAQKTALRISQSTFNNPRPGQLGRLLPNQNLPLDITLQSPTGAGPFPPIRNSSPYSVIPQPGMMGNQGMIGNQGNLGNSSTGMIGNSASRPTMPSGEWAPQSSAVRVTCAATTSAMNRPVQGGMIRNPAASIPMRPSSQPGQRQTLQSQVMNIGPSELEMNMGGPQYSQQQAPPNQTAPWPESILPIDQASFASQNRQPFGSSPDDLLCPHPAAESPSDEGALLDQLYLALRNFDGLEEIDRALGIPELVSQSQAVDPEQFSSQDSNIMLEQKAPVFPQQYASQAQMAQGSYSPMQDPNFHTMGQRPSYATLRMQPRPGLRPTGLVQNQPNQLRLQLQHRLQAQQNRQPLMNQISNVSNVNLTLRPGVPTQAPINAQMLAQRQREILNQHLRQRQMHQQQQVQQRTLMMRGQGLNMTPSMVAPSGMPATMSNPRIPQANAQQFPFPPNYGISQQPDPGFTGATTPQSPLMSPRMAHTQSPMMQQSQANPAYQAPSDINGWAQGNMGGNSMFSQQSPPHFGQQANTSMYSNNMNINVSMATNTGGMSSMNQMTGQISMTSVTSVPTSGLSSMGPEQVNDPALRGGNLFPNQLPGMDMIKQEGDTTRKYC
Sequence of Photoreceptor-specific nuclear receptor (Q9Y5X4 whole entry, the tested form may be a part): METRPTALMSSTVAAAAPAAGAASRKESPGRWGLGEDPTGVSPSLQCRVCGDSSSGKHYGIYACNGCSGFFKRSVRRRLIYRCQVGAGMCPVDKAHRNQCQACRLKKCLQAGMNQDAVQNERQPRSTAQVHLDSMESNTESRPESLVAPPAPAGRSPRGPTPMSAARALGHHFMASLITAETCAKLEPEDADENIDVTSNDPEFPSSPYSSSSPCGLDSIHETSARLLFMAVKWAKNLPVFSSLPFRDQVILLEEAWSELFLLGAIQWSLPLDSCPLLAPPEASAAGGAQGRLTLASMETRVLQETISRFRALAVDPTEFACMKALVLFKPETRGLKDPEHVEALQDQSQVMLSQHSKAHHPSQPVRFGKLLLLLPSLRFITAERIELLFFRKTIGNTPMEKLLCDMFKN
Sequence of Bcl-2-like protein 10 (Q9HD36 whole entry): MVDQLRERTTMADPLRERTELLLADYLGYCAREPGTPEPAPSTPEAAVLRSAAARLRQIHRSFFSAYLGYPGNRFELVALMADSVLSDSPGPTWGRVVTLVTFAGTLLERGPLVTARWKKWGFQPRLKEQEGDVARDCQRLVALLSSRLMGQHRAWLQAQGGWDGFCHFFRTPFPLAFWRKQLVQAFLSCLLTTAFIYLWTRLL

With O=C(Nc1ccc([N+](=O)[O-])cc1)c1cc2ccccc2nc1Cl the CC50 [1] was > 40 µM (active).

For CCCCCCCCCc1nc2sc3c(c2c(=O)n1NC(=O)c1ccccc1[N+](=O)[O-])CC(C)(C)OC3, the EC50 [2] was 1.73 µM (active), the EC50 (Streptokinase A) was 2.23 µM (active) and the IC50 (NS3) was 11.2 µM (not active). For the same compound, the EC50 (Streptococcus) was 63.4 µM (active) and the AC50 [3] was 0.843 µM (active).

For Cc1cc(C(=O)CSc2nc3ccccc3[nH]2)c(C)n1CC1CCCO1 (stereo not given), the EC50 [4] was 7.29 µM (inconclusive), the IC50 [5] was 1.2 µM (active) and the IC50 [6] was > 35 µM (not active). The EC50 [7] was > 100 µM (not active), the EC50 [8] was 8.51 µM (active) and the IC50 [9] was 0.874 µM (active). The IC50 (Galanin receptor type 2) was > 42 µM (not active), the EC50 [10] was 4.95 µM (active) and the IC50 [11] was > 35 µM (not active). The EC50 (HT-1080) was > 50 µM (not active) and the IC50 [12] was 11.7 µM (inactive).

In the case of COc1ccc(NC(=O)C2CC(=O)n3cnnc3S2)cc1 (stereo not given), the IC50 [13] was > 50 µM (not active).

In the case of Cn1c(/C(C#N)=C(\O)COc2ccc3ccccc3c2)nc2ccccc21, the EC50 [14] was > 79.4 µM (not active), the EC50 [15] was > 79.4 µM (not active) and the EC50 [16] was > 79.4 µM (not active). The AC50 [3] was < 0.16 µM (active), the EC50 [17] was > 99 µM (inactive) and the EC50 [18] was > 99 µM (inactive).

In the case of O=C(Nc1ccc(OCc2ccccc2)cc1)Nc1ccc(N2CCCCC2)cc1, the IC50 (NADPH oxidase 1) was > 17 µM (not active).

For Cc1ccc(-c2csc(NC(=O)c3ccno3)n2)cc1, the IC50 (Estrogen receptor) was 7.19 µM (active), the IC50 (Estrogen receptor beta [19]) was 3.87 µM (active) and the IC50 (Estrogen receptor beta [20]) was < 0.023 µM (not active). For the same compound, the IC50 (Protein skinhead-1) was > 100 µM (inactive).

For Oc1ccc(Nc2nc(-c3ccccn3)cs2)cc1, the EC50 (Bcl-2-like protein 10) was 3.69 µM (active).

Reference: ChEMBL document CHEMBL1201862, “PubChem BioAssay data set” (2004)
